IC50 and Ki data for eleven compounds are collected here from ChEMBL document CHEMBL1133183, “Quantized surface complementarity diversity (QSCD): a model based on small molecule-target complementarity” (J Med Chem, 2000).

What is called IC50 is the point on the concentration scale where inhibition reaches its midpoint. Broadly, the Ki is the dissociation constant of the complex between target and ligand, obtained from inhibition or displacement. Higher therefore signals lower affinity.

Assay [1] in a line: Inhibitory activity against DNA topoisomerase I.
Assay [2] addresses T1, Type-1 angiotensin II receptor (Oryctolagus cuniculus, UniProt P34976).
T1 sequence (P34976 whole entry): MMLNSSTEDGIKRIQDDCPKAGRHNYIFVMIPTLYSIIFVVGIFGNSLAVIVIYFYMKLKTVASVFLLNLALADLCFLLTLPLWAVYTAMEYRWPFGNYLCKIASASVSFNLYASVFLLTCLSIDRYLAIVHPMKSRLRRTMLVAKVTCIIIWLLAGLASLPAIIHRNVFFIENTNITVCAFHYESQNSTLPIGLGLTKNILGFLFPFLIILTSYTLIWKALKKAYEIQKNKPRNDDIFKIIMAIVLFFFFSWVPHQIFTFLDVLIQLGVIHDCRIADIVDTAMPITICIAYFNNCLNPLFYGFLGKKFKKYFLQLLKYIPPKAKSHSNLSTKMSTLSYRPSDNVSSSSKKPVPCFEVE
Put plainly: Binding affinity to Angiotensin II receptor, type 1.

In assay [3] the target is Leukotriene B4 receptor 1 (Homo sapiens, UniProt Q15722). Put plainly: Binding affinity to leukotriene B4 receptor.
The target in assay [4] is T2, Type-2 angiotensin II receptor (Rattus norvegicus, UniProt P35351).
T2 sequence (P35351 whole entry): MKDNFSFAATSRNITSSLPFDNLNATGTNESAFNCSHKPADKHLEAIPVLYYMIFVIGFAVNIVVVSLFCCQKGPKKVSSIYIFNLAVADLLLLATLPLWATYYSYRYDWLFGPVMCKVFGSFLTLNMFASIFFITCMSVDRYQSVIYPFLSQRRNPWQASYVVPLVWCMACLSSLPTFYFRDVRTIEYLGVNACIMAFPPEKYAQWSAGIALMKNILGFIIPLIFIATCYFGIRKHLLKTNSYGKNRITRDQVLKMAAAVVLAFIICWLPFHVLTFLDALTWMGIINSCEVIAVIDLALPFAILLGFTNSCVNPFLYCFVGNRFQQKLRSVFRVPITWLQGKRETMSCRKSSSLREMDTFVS
The assay can be described thus: Binding affinity to Angiotensin II receptor, type 2.

The target of assay [5] is T2, Type-2 angiotensin II receptor. Put plainly: Inhibitory activity against Angiotensin II receptor, type 2 binding.
The target of the next assay is Prolyl endopeptidase (Sus scrofa, UniProt P23687). The assay can be described thus: Inhibition of Prolyl endopeptidase activity. Type of assay: functional.
The next assay deals with Adenosine receptor A2a (Rattus norvegicus, UniProt P30543). Put plainly: Binding affinity to Adenosine A2A receptor.
Another assay has as its target T3, Endothelin-1 receptor (Homo sapiens, UniProt P25101).
T3 sequence (P25101 whole entry): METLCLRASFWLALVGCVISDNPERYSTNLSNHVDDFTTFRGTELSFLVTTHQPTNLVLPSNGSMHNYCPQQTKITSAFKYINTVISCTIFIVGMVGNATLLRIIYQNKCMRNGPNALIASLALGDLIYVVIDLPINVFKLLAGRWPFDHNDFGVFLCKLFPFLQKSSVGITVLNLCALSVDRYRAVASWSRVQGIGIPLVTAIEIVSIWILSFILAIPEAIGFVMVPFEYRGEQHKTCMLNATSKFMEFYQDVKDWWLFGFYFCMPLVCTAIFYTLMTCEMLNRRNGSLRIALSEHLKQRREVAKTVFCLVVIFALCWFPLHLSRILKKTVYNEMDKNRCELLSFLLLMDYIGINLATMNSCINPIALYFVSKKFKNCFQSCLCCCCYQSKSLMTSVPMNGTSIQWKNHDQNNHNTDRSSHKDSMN
The assay can be described thus: Binding affinity to Endothelin A receptor.

Molecules are shown by their SMILES.

Sequence of Leukotriene B4 receptor 1 (Q15722 whole entry): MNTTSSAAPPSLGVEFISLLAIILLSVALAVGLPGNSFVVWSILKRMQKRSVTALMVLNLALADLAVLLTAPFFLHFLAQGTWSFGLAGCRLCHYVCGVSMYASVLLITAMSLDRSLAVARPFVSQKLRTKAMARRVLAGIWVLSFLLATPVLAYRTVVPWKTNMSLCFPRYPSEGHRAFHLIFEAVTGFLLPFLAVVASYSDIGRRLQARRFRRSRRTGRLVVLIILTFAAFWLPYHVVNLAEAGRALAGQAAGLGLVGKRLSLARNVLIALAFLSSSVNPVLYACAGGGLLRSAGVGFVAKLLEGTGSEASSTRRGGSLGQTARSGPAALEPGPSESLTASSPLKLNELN
Sequence of Prolyl endopeptidase (P23687 whole entry): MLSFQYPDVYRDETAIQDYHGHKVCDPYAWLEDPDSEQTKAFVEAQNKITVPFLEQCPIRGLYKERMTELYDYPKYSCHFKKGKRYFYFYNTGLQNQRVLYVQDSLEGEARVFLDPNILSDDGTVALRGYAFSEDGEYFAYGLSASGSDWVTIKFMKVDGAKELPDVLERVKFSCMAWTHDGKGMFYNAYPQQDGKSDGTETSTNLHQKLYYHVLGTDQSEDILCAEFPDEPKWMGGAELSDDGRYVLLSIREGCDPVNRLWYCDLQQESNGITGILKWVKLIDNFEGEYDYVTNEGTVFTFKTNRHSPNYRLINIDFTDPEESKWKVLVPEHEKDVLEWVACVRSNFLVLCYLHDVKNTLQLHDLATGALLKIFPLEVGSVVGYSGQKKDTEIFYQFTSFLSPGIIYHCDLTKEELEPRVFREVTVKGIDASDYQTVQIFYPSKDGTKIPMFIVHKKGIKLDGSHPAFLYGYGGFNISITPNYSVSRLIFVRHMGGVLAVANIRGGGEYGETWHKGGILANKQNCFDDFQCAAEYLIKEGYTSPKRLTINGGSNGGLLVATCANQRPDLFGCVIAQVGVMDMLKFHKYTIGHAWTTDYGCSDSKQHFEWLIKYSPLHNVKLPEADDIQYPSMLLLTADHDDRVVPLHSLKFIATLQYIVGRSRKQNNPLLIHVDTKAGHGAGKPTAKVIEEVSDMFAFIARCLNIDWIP
Sequence of Adenosine receptor A2a (P30543 whole entry): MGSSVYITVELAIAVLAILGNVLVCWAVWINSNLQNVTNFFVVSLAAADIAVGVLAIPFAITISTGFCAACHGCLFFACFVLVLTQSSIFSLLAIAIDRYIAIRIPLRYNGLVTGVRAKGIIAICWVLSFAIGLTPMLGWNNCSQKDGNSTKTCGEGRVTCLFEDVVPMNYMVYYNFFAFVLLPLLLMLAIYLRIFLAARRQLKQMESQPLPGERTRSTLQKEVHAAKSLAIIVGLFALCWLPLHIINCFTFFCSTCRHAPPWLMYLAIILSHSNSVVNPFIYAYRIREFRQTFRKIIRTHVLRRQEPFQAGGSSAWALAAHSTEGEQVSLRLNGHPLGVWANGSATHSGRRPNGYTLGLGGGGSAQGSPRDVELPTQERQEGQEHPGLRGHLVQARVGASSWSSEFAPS

In assay [1], `CC[C@@]1(O)C(=O)OCc2c1cc1n(c2=O)Cc2c-1nc1cnc(Br)cc1c2C` came in with an IC50 of 28 nM.
Same read-out and setting: with `CC[C@@]1(O)C(=O)OCc2c1cc1n(c2=O)Cc2c-1nc1cnc(C#N)cc1c2C` the figure was 143 nM.
As for `CCCCc1nn(-c2ccccc2C(F)(F)F)c(=O)n1Cc1ccc(-c2ccccc2-c2nnn[nH]2)cc1`, the inhibitory constant (Ki) in assay [2] worked out at 1.2 nM.
In turn, `CCCc1c(OCCCOc2ccc3c(c2CCC)O[C@@H](C(=O)O)CC3)ccc(C(C)=O)c1CO` yielded an inhibitory constant (Ki) in assay [3] of 320 nM.
`CCCCc1nn(-c2ccccc2C(F)(F)F)c(=O)n1Cc1ccc(-c2ccccc2S(=O)(=O)NC(=O)OC(C)(C)C)cc1` gave a Ki in assay [4] of 17 nM. The compound also returned an IC50 in assay [5] of 0.45 nM.
Compound `CCCCc1nn(-c2cccc([N+](=O)[O-])c2)c(=O)n1Cc1ccc(-c2ccccc2S(=O)(=O)NC(=O)c2ccccc2Cl)cc1` gave an inhibitory constant (Ki) in assay [4] of 173 nM. Further, the IC50 in assay [5] is 31 nM.
Regarding `CCOC(=O)C(=O)[C@@H]1CCCN1C(=O)[C@@H]1CCCN1C(=O)CCCc1ccccc1`, it took 10.3 nM to reach half-maximal inhibition at Prolyl endopeptidase (IC50).
The compound `CCCCc1nn(-c2ccccc2C(C)C)c(=O)n1Cc1ccc(-c2ccccc2-c2nn[nH]n2)cc1` registered an inhibitory constant (Ki) in assay [2] of 1.4 nM. That is a single-digit nanomolar value.
As for `CCCc1c(OCCCOc2ccc(-c3cscn3)c(COC)c2CC2CC2)ccc2c1O[C@@H](C(=O)O)CC2`, the inhibition constant Ki in assay [3] was 3.2 nM.
Turning to `CCNC(=O)[C@H]1C[C@@H](n2cnc3c(N)nc(C#Cc4nccs4)nc32)[C@H](OC)[C@@H]1OC`, the inhibitory constant (Ki) at Adenosine receptor A2a is 41.3 nM. This lies in the double-digit nanomolar range.
For `COc1ccc(CC2C(c3ccc(Cl)c(Cl)c3)C(=O)O[C@@]2(O)c2ccc(OC)cc2)cc1` (stereo partly drawn), on Endothelin-1 receptor, the inhibitory constant (Ki) stood at 170 nM.
